Laboratory results published in publication PMC4890880 (ACS infectious diseases, 2016).
Where two headings read alike, the source gives them in different places.

Legend:
[1] = target: QuantiLum Recombinant Luciferase (Photinus pyralis, UniProt P08659); assay: Bioluminescence quantification of compound luciferase inhibition; conditions: for Emax: read-out: LucInhib max inhibition
[2] = test system: Plasmodium berghei (Pb-Luc) exoerythrocytic-stage parasites; assay: microbe, parasite or virus in culture; conditions: for inhibition at 10 µM: read-out: PbLuc max inhibition (%) @ 10 uM
HepG2-A16-CD81EGFP cells = assay: cells; conditions: Homo sapiens; for IC50: HepG2, read-out: Tox IC50; for inhibition at 50 µM: HepG2, read-out: Tox max inhibition (%) @ 50 uM; for inhibition at 10 µM: HepG2, read-out: Tox max inhibition (%) @ 10 uM
[3] = read-out: Inhibition% @ 50 uM rep1
[4] = read-out: Inhibition% @ 50 uM rep2
[5] = read-out: PbLuc IC50, dose response, 1/3 dilutions, max conc. 10 or 50 uM, unit inferred
[6] = read-out: PbLuc max inhibition (%) @ 50 uM
[7] = HepG2, read-out: HepG2 Tox% @ 50 uM rep1
[8] = HepG2, read-out: HepG2 Tox% @ 50 uM rep2
[9] = read-out: PbLuc IC50, dose response, unit inferred

Sequence of QuantiLum Recombinant Luciferase (P08659 whole entry): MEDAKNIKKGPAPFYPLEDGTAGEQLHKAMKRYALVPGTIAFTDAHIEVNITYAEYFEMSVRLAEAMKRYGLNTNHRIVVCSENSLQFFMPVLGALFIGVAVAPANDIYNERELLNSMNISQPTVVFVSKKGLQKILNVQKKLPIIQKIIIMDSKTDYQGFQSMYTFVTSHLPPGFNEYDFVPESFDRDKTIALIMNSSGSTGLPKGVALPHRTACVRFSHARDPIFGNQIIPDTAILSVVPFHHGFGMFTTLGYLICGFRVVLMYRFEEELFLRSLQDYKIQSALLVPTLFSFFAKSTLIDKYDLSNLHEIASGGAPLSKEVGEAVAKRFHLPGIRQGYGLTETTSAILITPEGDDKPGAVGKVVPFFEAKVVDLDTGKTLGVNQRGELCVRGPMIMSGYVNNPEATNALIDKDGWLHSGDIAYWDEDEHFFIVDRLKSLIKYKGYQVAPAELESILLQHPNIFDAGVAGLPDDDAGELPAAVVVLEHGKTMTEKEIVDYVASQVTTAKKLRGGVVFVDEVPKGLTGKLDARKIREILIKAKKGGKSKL

Compound	IC50 [1]	Emax [1]	inhibition at 50 µM [2, 3]	inhibition at 50 µM [2, 4]	IC50 [2, 5]	inhibition at 50 µM [2, 6]	cytotoxicity at 50 µM (HepG2-A16-CD81EGFP cells; [7])	IC50 (HepG2-A16-CD81EGFP cells)	inhibition at 50 µM (HepG2-A16-CD81EGFP cells)	inhibition at 10 µM [2]	cytotoxicity at 50 µM (HepG2-A16-CD81EGFP cells; [8])	inhibition at 10 µM (HepG2-A16-CD81EGFP cells)	IC50 [2, 9]
CCOc1ccccc1CN1CCc2nc3cc(C(C)(C)C)nn3c(O)c2C1 [MMV396595]	> 50 µM	50%	99%	100%	569 nM	106%	0.78%	> 50 µM	8%				
Cc1cc(NC(=O)c2ccc(-c3ccccc3)cc2)no1 [MMV018984]	> 20 µM	58%	101%	100%	790 nM		-22%	> 10 µM		101%	-20%	19%	
COc1ccc(-c2nc(N3CCN(C(=O)C4CCCCC4)CC3)c3c4c(sc3n2)CCCC4)cc1 [MMV396594]	> 50 µM	44%	98%	98%		69%	2.59%	> 50 µM	37%				39900 nM
CCCc1c(C)nc2ccc(Br)cc2c1O [MMV666095]	> 50 µM	25%	102%	103%	794 nM	106%	-21%	> 50 µM	-6%				
Cc1ccc(-c2cc3c(SCC(=O)Nc4cc(C(F)(F)F)ccc4Cl)nccn3n2)cc1 [MMV396680]	> 50 µM	21%	92%	85%	8630 nM	95%	-4%	> 50 µM	11%		2.13%		
O=C(NC1CCN(Cc2ccccc2)CC1)c1cc(-c2cccnc2)nc2ccc(Cl)cc12 [MMV020490]	> 50 µM	23%	95%	91%		71%	0.383%	> 50 µM	12%		-0.245%		> 50000 nM
CCOc1cc2c(cc1OCC)C(c1cc(OC)c(O)cc1Cl)NCC2 (centres unmarked) [MMV008956]	> 20 µM	24%	101%	100%			-6.54%	> 10 µM		22%	-15%	9%	> 10000 nM
CC(=O)Nc1nnc(SCc2c(C)cc(C(C)(C)C)cc2C)s1 [MMV020700]	> 50 µM	34%	103%	105%	2280 nM	103%	0.191%	> 50 µM	10%		8%		
CCN1CCN(c2c(C(=O)c3ccccc3)cnc3cc(OC)c(OC)cc23)CC1 [MMV008474]	> 50 µM	22%	102%	103%	1010 nM	106%	7%	> 50 µM	7%				
CCc1ccc(Nc2cc(C)nc3nc(C)nn23)cc1 [MMV007374]	> 50 µM	30%	92%	91%	4800 nM	101%	11%	> 50 µM	9%		15%		
CCOC(=O)c1cnc2ccc(CC)cc2c1O [MMV007116]	> 20 µM	17%	102%	101%	49.1 nM		-3.48%	> 10 µM		110%	-3.29%	10%	
Cc1ccc(-c2cc3nc4c(c(O)n3n2)CCCC4)cc1 [MMV006937]	1.79 µM	92%	103%	102%	114 nM		-11%	> 10 µM		110%	-9%	6.62%	
O=C(Nc1ccc(-c2nc3ccccc3[nH]2)cc1)c1ccc(Cl)c(Cl)c1 [MMV665840]	> 20 µM	22%	-57%	-66%			-7%	> 10 µM		15%		31%	> 10000 nM
COc1ccc(N2CCN(C(CNC(=O)C3CCCCC3)c3ccc4c(c3)OCO4)CC2)cc1 (centres unmarked) [MMV019662]	> 50 µM	38%	89%	94%		49%	18%	> 50 µM	19%		28%		> 50000 nM
CN1CCN(c2nc(Nc3ccc(O)cc3)nc3ccccc23)CC1 [MMV000986]	21.9 µM	69%	86%	90%	20400 nM	94%	25%	> 50 µM	7%				
CCOC(=O)c1cnc2c(C)cccc2c1Nc1ccc(C(C)=O)cc1 [MMV006250]	> 50 µM	27%	88%	91%		84%	18%	> 50 µM	0%				28200 nM
COc1ccc(C)c2sc(N(Cc3cccnc3)C(=O)c3ccc(C#N)cc3)nc12 [MMV001241]	> 50 µM	7%	100%	102%		101%	18%	> 50 µM	22%				21500 nM
COc1ccc(-c2cc3c(SCC(=O)Nc4cc(C(F)(F)F)ccc4Cl)nccn3n2)cc1 [MMV396679]	> 50 µM	10%	102%	103%	2180 nM	105%	7%	> 50 µM	14%		18%		
Oc1c2c(nc3cc(-c4ccccc4)nn13)CCCC2 [MMV008270]	0.577 µM	92%	103%	104%	147 nM		-14%	> 10 µM		106%	-22%	8%	
